Experiments:
Assay in all cases: cell viability (% survival relative to DMSO control); higher = less cytotoxic
Details in all cases: 72 h
[1] = test system: myeloid leukemia patient primary cells Pat.6
Summary of the method: (§1)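 Seventy compounds were pre-printed on 384-well plates at five tenfold concentrations between 1 and 10,000 nM, in duplicate. Thawed mononuclear cells purified by Ficoll from AML or CML patients were added at 10,000 cells/well in RPMI 1640 with 10% FBS for 72 h. Viability by CellTiter-Glo was normalised to DMSO and 10 μM proteasome-inhibitor wells. Where stated, area under the curve was taken from log-logistic fits made with the drc and PharmacoGx R packages, each fit having four parameters.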

[2] = test system: myeloid leukemia patient primary cells Pat.8
Summary of the method: as §1

[3] = test system: myeloid leukemia patient primary cells Pat.15
Summary of the method: as §1

[4] = test system: myeloid leukemia patient primary cells Pat.4
Summary of the method: as §1

[5] = test system: myeloid leukemia patient primary cells Pat.10
Summary of the method: as §1

[6] = test system: myeloid leukemia patient primary cells Pat.7
Summary of the method: as §1

[7] = test system: myeloid leukemia patient primary cells Pat.14
Summary of the method: as §1

[8] = test system: myeloid leukemia patient primary cells Pat.12
Summary of the method: as §1

[9] = test system: myeloid leukemia patient primary cells Pat.3
Summary of the method: as §1

SMILES: CCCCCCCCCCCCC/C=C/[C@@H](O)[C@H](CO)N(C)C [N,N-Dimethylsphingosine]
- cell viability ([1]; 1 nM): > 100%
- cell viability ([1]; 10 nM): 99.3%
- cell viability ([1]; 100 nM): 76.5%
- cell viability ([1]; 1000 nM): 83.7%
- cell viability ([1]; 10000 nM): 0.544%
- cell viability ([2]; 1 nM): 71.9%
- cell viability ([2]; 10 nM): 86.8%
- cell viability ([2]; 100 nM): 69%
- cell viability ([2]; 1000 nM): 92.9%
- cell viability ([2]; 10000 nM): 0.0301%
- cell viability ([3]; 1 nM): 93.8%
- cell viability ([3]; 10 nM): 95.6%
- cell viability ([3]; 100 nM): 78.6%
- cell viability ([3]; 1000 nM): 85.5%
- cell viability ([3]; 10000 nM): 10.4%
- cell viability ([4]; 1 nM): 98.5%
- cell viability ([4]; 10 nM): 80.5%
- cell viability ([4]; 100 nM): 78.5%
- cell viability ([4]; 1000 nM): 74%
- cell viability ([4]; 10000 nM): 5.51%
- cell viability ([5]; 1 nM): 79.3%
- cell viability ([5]; 10 nM): 74.6%
- cell viability ([5]; 100 nM): 39.9%
- cell viability ([5]; 1000 nM): 22.9%
- cell viability ([5]; 10000 nM): < 0%
- cell viability ([6]; 1 nM): 90.6%
- cell viability ([6]; 10 nM): 65.6%
- cell viability ([6]; 100 nM): 86.3%
- cell viability ([6]; 1000 nM): 11.6%
- cell viability ([6]; 10000 nM): < 0%
- cell viability ([7]; 1 nM): 97.9%
- cell viability ([7]; 10 nM): 85%
- cell viability ([7]; 100 nM): 57.8%
- cell viability ([7]; 1000 nM): 47.9%
- cell viability ([7]; 10000 nM): 2.81%
- cell viability ([8]; 1 nM): 100%
- cell viability ([8]; 10 nM): 84.6%
- cell viability ([8]; 100 nM): 94.2%
- cell viability ([8]; 1000 nM): 84.6%
- cell viability ([8]; 10000 nM): 42.2%
- cell viability ([9]; 1 nM): 57.4%
- cell viability ([9]; 10 nM): 87.2%
- cell viability ([9]; 100 nM): 60%
- cell viability ([9]; 1000 nM): 17.4%
- cell viability ([9]; 10000 nM): 0.177%

SMILES: Nc1nc(O)c2c(CCc3ccc(C(=O)N[C@@H](CCC(=O)O)C(=O)O)cc3)c[nH]c2n1 [Pemetrexed]
- cell viability ([1]; 1 nM): 96.3%
- cell viability ([1]; 10 nM): > 100%
- cell viability ([1]; 100 nM): 97.8%
- cell viability ([1]; 1000 nM): 98.7%
- cell viability ([1]; 10000 nM): 78.6%
- cell viability ([2]; 1 nM): 91.8%
- cell viability ([2]; 10 nM): 88.4%
- cell viability ([2]; 100 nM): 89.8%
- cell viability ([2]; 1000 nM): 78.1%
- cell viability ([2]; 10000 nM): 87.6%
- cell viability ([3]; 1 nM): 96.9%
- cell viability ([3]; 10 nM): 98.4%
- cell viability ([3]; 100 nM): > 100%
- cell viability ([3]; 1000 nM): 63.2%
- cell viability ([3]; 10000 nM): 94.2%
- cell viability ([4]; 1 nM): > 100%
- cell viability ([4]; 10 nM): 93.8%
- cell viability ([4]; 100 nM): 93.1%
- cell viability ([4]; 1000 nM): 67.3%
- cell viability ([4]; 10000 nM): 82.8%
- cell viability ([5]; 1 nM): 85.8%
- cell viability ([5]; 10 nM): 86%
- cell viability ([5]; 100 nM): 51.4%
- cell viability ([5]; 1000 nM): 81.3%
- cell viability ([5]; 10000 nM): 59.3%
- cell viability ([6]; 1 nM): 98.8%
- cell viability ([6]; 10 nM): 68.1%
- cell viability ([6]; 100 nM): 84.5%
- cell viability ([6]; 1000 nM): 74.1%
- cell viability ([6]; 10000 nM): 66.3%
- cell viability ([7]; 1 nM): 86.9%
- cell viability ([7]; 10 nM): 82.5%
- cell viability ([7]; 100 nM): 90.2%
- cell viability ([7]; 1000 nM): 94.7%
- cell viability ([7]; 10000 nM): 52.5%
- cell viability ([8]; 1 nM): > 100%
- cell viability ([8]; 10 nM): 94.2%
- cell viability ([8]; 100 nM): 95.4%
- cell viability ([8]; 1000 nM): 99.1%
- cell viability ([8]; 10000 nM): 97.1%
- cell viability ([9]; 1 nM): > 100%
- cell viability ([9]; 10 nM): 79.5%
- cell viability ([9]; 100 nM): 76.8%
- cell viability ([9]; 1000 nM): 50.9%
- cell viability ([9]; 10000 nM): 45.7%

SMILES: C=C1NC(=O)c2cc(CN(C)c3ccc(C(=O)N[C@@H](CCC(=O)O)C(=O)O)s3)ccc2N1 [Raltitrexed]
- cell viability ([1]; 1 nM): 90.3%
- cell viability ([1]; 10 nM): 98.1%
- cell viability ([1]; 100 nM): > 100%
- cell viability ([1]; 1000 nM): > 100%
- cell viability ([1]; 10000 nM): > 100%
- cell viability ([2]; 1 nM): 90.8%
- cell viability ([2]; 10 nM): 85.5%
- cell viability ([2]; 100 nM): 87.2%
- cell viability ([2]; 1000 nM): 87.3%
- cell viability ([2]; 10000 nM): > 100%
- cell viability ([3]; 1 nM): 81.4%
- cell viability ([3]; 10 nM): 90%
- cell viability ([3]; 100 nM): 89.2%
- cell viability ([3]; 1000 nM): 95.1%
- cell viability ([3]; 10000 nM): > 100%
- cell viability ([4]; 1 nM): 80.7%
- cell viability ([4]; 10 nM): > 100%
- cell viability ([4]; 100 nM): 94.1%
- cell viability ([4]; 1000 nM): 97.6%
- cell viability ([4]; 10000 nM): > 100%
- cell viability ([5]; 1 nM): 54.5%
- cell viability ([5]; 10 nM): 74.6%
- cell viability ([5]; 100 nM): 96.5%
- cell viability ([5]; 1000 nM): > 100%
- cell viability ([5]; 10000 nM): 89.9%
- cell viability ([6]; 1 nM): 64.8%
- cell viability ([6]; 10 nM): > 100%
- cell viability ([6]; 100 nM): 97.1%
- cell viability ([6]; 1000 nM): 85.1%
- cell viability ([6]; 10000 nM): > 100%
- cell viability ([7]; 1 nM): 71%
- cell viability ([7]; 10 nM): 94.5%
- cell viability ([7]; 100 nM): > 100%
- cell viability ([7]; 1000 nM): 90.2%
- cell viability ([7]; 10000 nM): 92.1%
- cell viability ([8]; 1 nM): 86.9%
- cell viability ([8]; 10 nM): 96.9%
- cell viability ([8]; 100 nM): > 100%
- cell viability ([8]; 1000 nM): 95.9%
- cell viability ([8]; 10000 nM): 98.6%
- cell viability ([9]; 1 nM): 81.1%
- cell viability ([9]; 10 nM): > 100%
- cell viability ([9]; 100 nM): 58.5%
- cell viability ([9]; 1000 nM): 38.7%
- cell viability ([9]; 10000 nM): 58.7%

— the supplement of paper PMC8671470
